Earlier results, collected in patent publication CN115177586A, “一种卡泊三醇组合物” (Jiangsu Zhiyuan Pharmaceutical Co ltd, priority 2022, dated 2022).

Details: not told

permeability: 渗透性极差
SMILES: C=C1/C(=C\C=C2/CCC[C@]3(C)[C@@H]([C@H](C)/C=C/[C@@H](O)C4CC4)CC[C@@H]23)C[C@@H](O)C[C@@H]1O [卡泊三醇]
